Reference: PubChem BioAssay (NCI)
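Tested at 5 concentrations; 48 h exposure; 96-well plates; endpoints linearly interpolated, else capped at highest concentration. Definition used: TGI = concentration required for complete inhibition of growth.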

Tests used:
Assay in all cases: inhibition of tumour cell growth, NCI panel, 48 h
HCT-116 colon = system: HCT-116 colon
OVCAR-4 ovarian = system: OVCAR-4 ovarian
SK-MEL-28 melanoma = system: SK-MEL-28 melanoma
COLO 205 colon = system: COLO 205 colon
CCRF-CEM leukemia = system: CCRF-CEM leukemia
T-47D breast = system: T-47D breast
UO-31 renal = system: UO-31 renal
MDA-N = system: MDA-N
U251 CNS = system: U251 CNS
NCI/ADR-RES ovarian = system: NCI/ADR-RES ovarian
UACC-62 melanoma = system: UACC-62 melanoma
MDA-MB-435 = system: MDA-MB-435
ACHN renal = system: ACHN renal
NCI-H23 lung = system: NCI-H23 lung
NCI-H460 lung = system: NCI-H460 lung
DU-145 prostate = system: DU-145 prostate
MDA-MB-231 breast = system: MDA-MB-231 breast
OVCAR-3 ovarian = system: OVCAR-3 ovarian
LOX IMVI melanoma = system: LOX IMVI melanoma
RPMI-8226 leukemia = system: RPMI-8226 leukemia
786-0 renal = system: 786-0 renal
IGROV1 ovarian = system: IGROV1 ovarian
SN12C renal = system: SN12C renal
NCI-H522 lung = system: NCI-H522 lung
HCT-15 colon = system: HCT-15 colon
A498 renal = system: A498 renal
UACC-257 melanoma = system: UACC-257 melanoma
HS 578T breast = system: HS 578T breast
SK-MEL-5 melanoma = system: SK-MEL-5 melanoma
SNB-75 CNS = system: SNB-75 CNS
HL-60(TB) leukemia = system: HL-60(TB) leukemia
HT29 colon = system: HT29 colon
HCC-2998 colon = system: HCC-2998 colon
SF-268 CNS = system: SF-268 CNS
MOLT-4 leukemia = system: MOLT-4 leukemia
KM12 colon = system: KM12 colon
K-562 leukemia = system: K-562 leukemia
CAKI-1 renal = system: CAKI-1 renal
OVCAR-8 ovarian = system: OVCAR-8 ovarian
PC-3 prostate = system: PC-3 prostate
NCI-H226 lung = system: NCI-H226 lung
EKVX NSCLC = system: EKVX NSCLC
HOP-62 NSCLC = system: HOP-62 NSCLC
SW-620 colon = system: SW-620 colon
SK-MEL-2 melanoma = system: SK-MEL-2 melanoma
HOP-92 NSCLC = system: HOP-92 NSCLC
TK-10 renal = system: TK-10 renal
SNB-19 CNS = system: SNB-19 CNS
MALME-3M melanoma = system: MALME-3M melanoma
SK-OV-3 ovarian = system: SK-OV-3 ovarian
MCF7 breast = system: MCF7 breast
SF-539 CNS = system: SF-539 CNS
BT-549 breast = system: BT-549 breast
SF-295 CNS = system: SF-295 CNS
M14 melanoma = system: M14 melanoma
OVCAR-5 ovarian = system: OVCAR-5 ovarian
A549 NSCLC = system: A549 NSCLC

O=c1oc2ccccc2c(O)c1C(c1ccco1)c1c(O)c2ccccc2oc1=O
TGI (HCT-116 colon): > 100 µM
TGI (OVCAR-4 ovarian): > 100 µM
TGI (SK-MEL-28 melanoma): 52.1 µM
TGI (COLO 205 colon): 48.9 µM
TGI (CCRF-CEM leukemia): 73.8 µM
TGI (T-47D breast): > 100 µM
TGI (UO-31 renal): 43.9 µM
TGI (MDA-N): 44.9 µM
TGI (U251 CNS): 61.8 µM
TGI (NCI/ADR-RES ovarian): > 100 µM
TGI (UACC-62 melanoma): 70 µM
TGI (MDA-MB-435): 85.4 µM
TGI (ACHN renal): 55.8 µM
TGI (NCI-H23 lung): > 100 µM
TGI (NCI-H460 lung): > 100 µM
TGI (DU-145 prostate): > 100 µM
TGI (MDA-MB-231 breast): 36 µM
TGI (OVCAR-3 ovarian): > 100 µM
TGI (LOX IMVI melanoma): 61.1 µM
TGI (RPMI-8226 leukemia): 66.1 µM
TGI (786-0 renal): 55.5 µM
TGI (IGROV1 ovarian): 45.8 µM
TGI (SN12C renal): 63.1 µM
TGI (NCI-H522 lung): 41.8 µM
TGI (HCT-15 colon): 41.4 µM
TGI (A498 renal): > 100 µM
TGI (UACC-257 melanoma): 63.4 µM
TGI (HS 578T breast): > 100 µM
TGI (SK-MEL-5 melanoma): > 100 µM
TGI (SNB-75 CNS): 95.9 µM
TGI (HL-60(TB) leukemia): > 100 µM
TGI (HT29 colon): > 100 µM
TGI (HCC-2998 colon): 55.1 µM
TGI (SF-268 CNS): 79.8 µM
TGI (MOLT-4 leukemia): 62.1 µM
TGI (KM12 colon): > 100 µM
TGI (K-562 leukemia): > 100 µM
TGI (CAKI-1 renal): 42.4 µM
TGI (OVCAR-8 ovarian): 82 µM
TGI (PC-3 prostate): > 100 µM
TGI (NCI-H226 lung): > 100 µM
TGI (EKVX NSCLC): > 100 µM
TGI (HOP-62 NSCLC): > 100 µM
TGI (SW-620 colon): 49.8 µM
TGI (SK-MEL-2 melanoma): > 100 µM
TGI (HOP-92 NSCLC): > 100 µM
TGI (TK-10 renal): 80.2 µM
TGI (SNB-19 CNS): > 100 µM
TGI (MALME-3M melanoma): 41.7 µM

OC12COc3ccccc3C1Oc1ccccc1C2 (stereo unspecified)
TGI (HCT-116 colon): > 100 µM
TGI (OVCAR-4 ovarian): > 100 µM
TGI (SK-OV-3 ovarian): > 100 µM
TGI (COLO 205 colon): > 100 µM
TGI (CCRF-CEM leukemia): > 100 µM
TGI (MCF7 breast): > 100 µM
TGI (T-47D breast): > 100 µM
TGI (UO-31 renal): > 100 µM
TGI (MDA-N): > 100 µM
TGI (U251 CNS): > 100 µM
TGI (SF-539 CNS): > 100 µM
TGI (NCI/ADR-RES ovarian): > 100 µM
TGI (UACC-62 melanoma): > 100 µM
TGI (MDA-MB-435): > 100 µM
TGI (BT-549 breast): > 100 µM
TGI (ACHN renal): > 100 µM
TGI (NCI-H23 lung): > 100 µM
TGI (DU-145 prostate): > 100 µM
TGI (MDA-MB-231 breast): > 100 µM
TGI (OVCAR-3 ovarian): > 100 µM
TGI (LOX IMVI melanoma): > 100 µM
TGI (RPMI-8226 leukemia): > 100 µM
TGI (786-0 renal): > 100 µM
TGI (SF-295 CNS): > 100 µM
TGI (IGROV1 ovarian): > 100 µM
TGI (SN12C renal): > 100 µM
TGI (M14 melanoma): > 100 µM
TGI (NCI-H522 lung): > 100 µM
TGI (HCT-15 colon): > 100 µM
TGI (OVCAR-5 ovarian): > 100 µM
TGI (A498 renal): > 100 µM
TGI (UACC-257 melanoma): > 100 µM
TGI (SK-MEL-5 melanoma): > 100 µM
TGI (SNB-75 CNS): > 100 µM
TGI (HT29 colon): > 100 µM
TGI (HCC-2998 colon): > 100 µM
TGI (SF-268 CNS): > 100 µM
TGI (MOLT-4 leukemia): > 100 µM
TGI (KM12 colon): > 100 µM
TGI (K-562 leukemia): > 100 µM
TGI (CAKI-1 renal): > 100 µM
TGI (OVCAR-8 ovarian): > 100 µM
TGI (PC-3 prostate): > 100 µM
TGI (NCI-H226 lung): > 100 µM
TGI (EKVX NSCLC): > 100 µM
TGI (HOP-62 NSCLC): > 100 µM
TGI (SW-620 colon): > 100 µM
TGI (A549 NSCLC): > 100 µM
TGI (SK-MEL-2 melanoma): > 100 µM
TGI (HOP-92 NSCLC): > 100 µM
TGI (TK-10 renal): > 100 µM
TGI (MALME-3M melanoma): > 100 µM
